Drawing on patent US8389500B2, “Fused heterocyclic compounds as ion channel modulators” (Gilead Sciences, Inc., priority 2008, dated 2013), this text covers inhibition for 32 compounds.

In this assay the target is T1, wild-type human cardiac sodium channel, hNav1.5 (late sodium current) (Homo sapiens, UniProt Q14524).
T1 construct: host or cells: HEK293
The experiment in a line: Late INa screening assay (PatchXpress whole cell patch clamp). The class given is cell-based. The settings on record: HEK293 hNav1.5, late INa generated with 10 μM Tefluthrin (some experiments 50 nM ATX II); for inhibition at 10 µM: 10 μM test compound, read-out: Late INa % blk (10 μM test cmpd); for inhibition at 1 µM: 1 μM test compound, read-out: Late INa % blk (1 μM test cmpd). As to the method: The late sodium current (Late INa) and peak sodium current (Peak INa) assays are performed on an automated electrophysiology platform, PatchXpress 7000A (MDS Analytical Technologies, Sunnyvale, Calif.), which uses the whole cell patch clamp technique to measure currents through the cell membrane of up to 16 cells at a time. The assay uses an HEK293 (human embryonic kidney) cell line heterologously expressing the wild-type human cardiac sodium channel, hNav1.5, purchased from Millipore (Billerica, Mass.). No beta subunits were coexpressed with the Na channel alpha subunit. Cells are maintained with standard tissue culture procedures and stable channel expression is maintained with 400 μg/ml Geneticin in the culture medium. […] Experiments are carried out at 24-27° C.
For both the Late INa and Peak INa assays, series resistance compensation is set to 50% and whole-cell compensation is performed automatically. […] Currents through open sodium channels are automatically recorded and stored in the DataXpress2 database (MDS Analytical Technologies, Sunnyvale, Calif.). Analysis is performed using DataXpress2 analysis software and data are compiled in Excel.
Compound stocks are routinely made in glass vials to 10 mM in dimethyl sulfoxide (DMSO). In some cases, when compounds are not soluble in DMSO, they are made in 100% ethanol. Stocks are sonicated as necessary. The extracellular solution for screening Late INa is composed of: 140 mM NaCl, 4 mM KCl, 1.8 mM CaCl2, 0.75 mM MgCl2, and 5 mM HEPES with pH adjusted to 7.4 using NaOH. The extracellular solution for screening Peak INa is composed of: 20 mM NaCl, 120 mM N-methyl-D glucamine, 4 mM KCl, 1.8 mM CaCl2, 0.75 mM MgCl2, and 5 mM HEPES with pH adjusted to 7.4 using HCl. The intracellular solution used to perfuse the inside of the cells for both the Late INa and Peak INa assays contains: 120 mM CsF, 20 mM CsCl, 5 mM EGTA, 5 mM HEPES and pH adjusted to 7.4 with CsOH. […] The 0Na extracellular solution used at the end of each experiment for the Late INa and Peak INa assays to measure baseline current contains: 140 mM N-methyl-D-glucamine; 4 mM KCl; 1.8 mM CaCl2; 0.75 mM MgCl2; 5 mM HEPES and pH was adjusted to 7.4 with HCl.
For the Late INa assay, sodium channels are activated every 10 seconds (0.1 Hz) by depolarizing the cell membrane to −20 mV for 250 milliseconds (ms) from a holding potential of −120 mV. In response to a −20 mV voltage step, typical Nav1.5 sodium currents activate rapidly to a peak negative current and then inactivate nearly completely within […].
All compounds are tested to determine their activity in blocking the late sodium current. Late INa current is generated by adding 10 μM Tefluthrin (pyrethroid) to the extracellular solution while recording Na currents For some experiments, 50 nM ATX II (sea anemone toxin), another late Na activator, was used to generate the late component. […] After establishing the whole cell recording configuration, late INa activators are added to each well 4 times over a 16-17 minute period so that the late component of the Na current reaches a stable value. […] Measurements are made at the end of exposure to the third compound addition and values are normalized to the current level when all Na^+ is removed from the extracellular solution after two additions of ONa-ECF. Results are reported as percent block of late INa
For orientation: In patch-clamp work, channel activity is measured electrically.

T1 sequence (Q14524 whole entry): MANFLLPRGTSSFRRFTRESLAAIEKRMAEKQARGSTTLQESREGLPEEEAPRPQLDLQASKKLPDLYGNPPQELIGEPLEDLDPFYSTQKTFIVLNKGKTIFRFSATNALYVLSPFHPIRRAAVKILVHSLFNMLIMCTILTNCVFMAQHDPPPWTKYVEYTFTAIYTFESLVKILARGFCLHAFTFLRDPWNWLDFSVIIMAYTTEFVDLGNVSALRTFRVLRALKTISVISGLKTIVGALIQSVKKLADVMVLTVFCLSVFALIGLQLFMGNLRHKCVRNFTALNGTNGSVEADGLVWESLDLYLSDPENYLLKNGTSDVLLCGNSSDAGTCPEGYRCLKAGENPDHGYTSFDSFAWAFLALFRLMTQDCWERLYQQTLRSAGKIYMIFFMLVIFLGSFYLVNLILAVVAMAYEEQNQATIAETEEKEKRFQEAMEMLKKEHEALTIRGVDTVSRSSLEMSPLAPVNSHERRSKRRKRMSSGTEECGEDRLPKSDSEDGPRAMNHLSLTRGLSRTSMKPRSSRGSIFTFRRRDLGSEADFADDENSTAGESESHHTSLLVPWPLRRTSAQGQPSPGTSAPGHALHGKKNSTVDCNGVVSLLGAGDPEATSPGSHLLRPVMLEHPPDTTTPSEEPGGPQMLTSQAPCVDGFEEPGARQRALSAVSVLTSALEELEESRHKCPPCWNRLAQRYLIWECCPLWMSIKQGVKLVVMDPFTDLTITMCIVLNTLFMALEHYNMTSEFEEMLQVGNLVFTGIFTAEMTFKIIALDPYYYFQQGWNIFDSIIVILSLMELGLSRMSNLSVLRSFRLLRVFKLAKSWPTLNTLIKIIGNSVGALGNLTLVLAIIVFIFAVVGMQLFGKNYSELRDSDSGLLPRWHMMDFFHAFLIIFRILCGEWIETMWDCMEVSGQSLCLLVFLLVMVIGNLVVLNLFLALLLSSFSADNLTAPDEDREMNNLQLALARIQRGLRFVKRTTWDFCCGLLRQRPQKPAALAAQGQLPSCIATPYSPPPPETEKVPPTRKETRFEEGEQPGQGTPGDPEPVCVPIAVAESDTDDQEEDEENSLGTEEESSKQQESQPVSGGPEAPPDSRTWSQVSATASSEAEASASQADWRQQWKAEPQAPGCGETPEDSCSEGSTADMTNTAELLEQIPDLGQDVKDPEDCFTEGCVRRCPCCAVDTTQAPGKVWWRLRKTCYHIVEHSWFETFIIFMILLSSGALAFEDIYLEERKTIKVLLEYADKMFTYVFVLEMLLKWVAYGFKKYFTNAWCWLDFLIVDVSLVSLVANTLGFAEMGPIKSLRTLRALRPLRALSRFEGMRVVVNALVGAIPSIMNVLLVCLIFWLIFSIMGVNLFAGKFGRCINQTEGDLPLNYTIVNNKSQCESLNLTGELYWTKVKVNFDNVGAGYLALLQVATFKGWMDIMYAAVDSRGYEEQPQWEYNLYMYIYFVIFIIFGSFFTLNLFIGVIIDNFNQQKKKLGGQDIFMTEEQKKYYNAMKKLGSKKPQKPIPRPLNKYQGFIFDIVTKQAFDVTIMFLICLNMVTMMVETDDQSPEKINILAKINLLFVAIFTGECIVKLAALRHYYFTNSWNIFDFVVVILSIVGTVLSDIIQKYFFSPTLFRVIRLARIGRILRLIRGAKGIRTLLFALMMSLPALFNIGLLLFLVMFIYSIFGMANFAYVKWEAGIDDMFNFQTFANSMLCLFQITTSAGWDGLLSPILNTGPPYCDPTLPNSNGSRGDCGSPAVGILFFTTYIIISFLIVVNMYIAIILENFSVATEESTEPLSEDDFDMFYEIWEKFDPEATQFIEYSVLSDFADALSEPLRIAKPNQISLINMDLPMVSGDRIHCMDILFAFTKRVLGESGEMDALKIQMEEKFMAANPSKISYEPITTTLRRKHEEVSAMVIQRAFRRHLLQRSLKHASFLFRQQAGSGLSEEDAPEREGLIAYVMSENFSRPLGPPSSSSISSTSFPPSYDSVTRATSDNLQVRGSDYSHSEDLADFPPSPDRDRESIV

Consider `CS(=O)(=O)Nc1cccc(-c2ccc(Oc3ccc(C(=O)O)cc3)cc2)c1` [PT-131, 4-(3′-(methylsulfonamido)biphenyl-4-yloxy)benzoic acid], for which the inhibition at 10 µM came to 20.8%. Same read-out and setting: in the case of `CS(=O)(=O)Nc1ccc(-c2ccc(F)c(Cl)c2)cc1` [PT-007, N-(3′-chloro-4′-fluorobiphenyl-4-yl)methanesulfonamide] it was 34.9%; in that of `CCOC(=O)CN(c1ccc(-c2cccc(OC(F)(F)F)c2)c(OC)c1)S(C)(=O)=O` [PT-020, ethyl N-[2-methoxy-3′-(trifluoromethoxy)biphenyl-4-yl]-N-(methylsulfonyl)glycinate], 52.9%. On the same count and under the same terms, in the case of `CS(=O)(=O)Nc1ccc(-c2ccc(Oc3ccccc3)cc2)cc1OC(F)(F)F` [PT-119, N-[4′-phenoxy-3-(trifluoromethoxy)biphenyl-4-yl]methanesulfonamide] it was 6.6%. As to `CS(=O)(=O)N(CCN1CCCCC1)c1ccc(-c2ccc(Cl)c(F)c2)c(Cl)c1` [PT-062, N-(2,4′-dichloro-3′-fluorobiphenyl-4-yl)-N-[2-(piperidin-1-yl)ethyl]methanesulfonamide], the inhibition at 1 µM worked out at 25.7% and the inhibition at 10 µM was found to be 74.8%. Regarding `O=S(=O)(Nc1ccc(-c2ccc(Oc3ccccc3)cc2)c(Cl)c1)C1CC1` [PT-048, N-(2-chloro-4′-phenoxybiphenyl-4-yl)cyclopropanesulfonamide], the inhibition at 10 µM was 37.9%. For the compound `COc1ccc(NS(C)(=O)=O)cc1-c1ccc(Cl)c(F)c1` [PT-110, N-(4′-chloro-3′-fluoro-6-methoxybiphenyl-3-yl)methanesulfonamide], the inhibition at 10 µM came to 39.9%. With `CS(=O)(=O)Nc1ccc(-c2cc(F)cc(F)c2)c(Cl)c1` [PT-068, N-(2-chloro-3′,5′-difluorobiphenyl-4-yl)methanesulfonamide], the inhibition at 10 µM amounted to 42.2%. Turning to `O=S(=O)(Nc1ccc(-c2ccc(Oc3ccccc3)cc2)cc1OC(F)(F)F)C1CC1` [PT-114, N-[4′-phenoxy-3-(trifluoromethoxy)biphenyl-4-yl]cyclopropanesulfonamide], the inhibition at 10 µM worked out at 14.1%. With `Cc1cc(-c2ccc(Oc3ccccc3)cc2)c(F)cc1N(Cc1ccc(C(=O)O)cc1)S(C)(=O)=O` [PT-142, 4-((N-(2-fluoro-5-methyl-4′-phenoxybiphenyl-4-yl)methylsulfonamido)methyl)benzoic acid], the inhibition at 10 µM amounted to 2.7%. Still for that read-out and setting: in the case of `N#Cc1cc(NS(=O)(=O)C2CC2)ccc1-c1ccc(Oc2ccccc2)cc1` [PT-124, N-(2-cyano-4′-phenoxybiphenyl-4-yl)cyclopropanesulfonamide] it was 32.2%. Turning to `CC(C)(C)OC(=O)CN(c1ccc(-c2ccc(C(F)(F)F)cc2)c(Cl)c1)S(C)(=O)=O` [PT-128, tert-butyl 2-(N-(2-chloro-4′-(trifluoromethyl)biphenyl-4-yl)methylsulfonamido)acetate], the inhibition at 10 µM stood at 25.7%. Take `CS(=O)(=O)Nc1ccc(-c2ccc(C(F)(F)F)cc2)c(F)c1` [PT-080, N-[2-fluoro-4′-(trifluoromethyl)biphenyl-4-yl]methanesulfonamide]: the inhibition at 10 µM was 66%. The same measure, in the same setting: in the case of `COc1cc(NS(C)(=O)=O)ccc1-c1ccc(Cl)cc1` [PT-032, N-(4′-chloro-2-methoxybiphenyl-4-yl)methanesulfonamide] it was 42%.

In the case of `CS(=O)(=O)Nc1ccc(-c2ccc(F)cc2Cl)cc1Cl` [PT-098, N-(2′,3-dichloro-4′-fluorobiphenyl-4-yl)methanesulfonamide], the inhibition at 10 µM worked out at 36.4%.

As to `O=C(O)c1cc(-c2ccc(Oc3ccccc3)cc2)ccc1NS(=O)(=O)C1CC1` [PT-117, 4-[(cyclopropylsulfonyl)amino]-4′-phenoxybiphenyl-3-carboxylic acid], the inhibition at 10 µM is 40.7%. As for `CS(=O)(=O)Nc1ccc(-c2ccc(C(F)(F)F)cc2)cc1OC(F)(F)F` [PT-075, N-[3-(trifluoromethoxy)-4′-(trifluoromethyl)biphenyl-4-yl]methanesulfonamide], the inhibition at 10 µM amounted to 24.4%. Same read-out and setting: in the case of `CS(=O)(=O)Nc1ccc(-c2ccc(Cl)c(F)c2)c(C(F)(F)F)c1` [PT-012, N-[4′-chloro-3′-fluoro-2-(trifluoromethyl)biphenyl-4-yl]methanesulfonamide] it was 52%; in that of `COC(=O)c1ccc(-c2ccc(NS(C)(=O)=O)cc2Cl)cc1` [PT-044, methyl 2′-chloro-4′-[(methylsulfonyl)amino]biphenyl-4-carboxylate], 50.6%; in that of `COc1ccc(-c2ccc(NS(C)(=O)=O)cc2Cl)cc1` [PT-051, N-(2-chloro-4′-methoxybiphenyl-4-yl)methanesulfonamide], 27%. `CS(=O)(=O)N(Cc1ccc(C(=O)O)cc1)c1cccc(-c2ccc(C(F)(F)F)c(F)c2)c1` [PT-154, 4-((N-(3′-fluoro-4′-(trifluoromethyl)biphenyl-3-yl)methylsulfonamido)methyl)benzoic acid]: the inhibition at 10 µM was found to be 7%. Still for that read-out and setting: for `CS(=O)(=O)Nc1ccc(-c2cc(F)c(F)c(F)c2)c(Cl)c1` [PT-071, N-(2-chloro-3′,4′,5′-trifluorobiphenyl-4-yl)methanesulfonamide] the value was 59.5%; for `CS(=O)(=O)Nc1ccc(-c2cccc(C(F)(F)F)c2)c(F)c1` [PT-079, N-[2-fluoro-3′-(trifluoromethyl)biphenyl-4-yl]methanesulfonamide], 53.2%. Regarding `CS(=O)(=O)Nc1ccc(-c2ccc(Cl)c(F)c2)cc1` [PT-005, N-(4′-chloro-3′-fluorobiphenyl-4-yl)methanesulfonamide], the inhibition at 10 µM is 20.5%.

`CS(=O)(=O)Nc1ccc(-c2ccc(F)c(F)c2)c(Cl)c1` [PT-023, N-(2-chloro-3′,4′-difluorobiphenyl-4-yl)methanesulfonamide]: the inhibition at 10 µM is 48.2%.

Regarding `C#Cc1cc(NS(C)(=O)=O)ccc1-c1ccc(Oc2ccccc2)cc1` [PT-129, N-(2-ethynyl-4′-phenoxybiphenyl-4-yl)methanesulfonamide], the inhibition at 10 µM is 44.4%.

For `N#Cc1cc(NS(=O)(=O)C2CC2)ccc1-c1ccc(C(F)(F)F)cc1` [PT-130, N-(2-cyano-4′-(trifluoromethyl)biphenyl-4-yl)cyclopropanesulfonamide], the inhibition at 10 µM came to 26%. The same measure, in the same setting: for `CS(=O)(=O)N(Cc1ccc(C(=O)O)cc1)c1ccc(-c2ccc(Oc3ccccc3)cc2)cc1` [PT-156, 4-((N-(4′-phenoxybiphenyl-4-yl)methylsulfonamido)methyl)benzoic acid] the value was 7.9%; for `CS(=O)(=O)N(CCN1CCOCC1)c1ccc(-c2ccc(Cl)c(F)c2)c(Cl)c1` [PT-061, N-(2,4′-dichloro-3′-fluorobiphenyl-4-yl)-N-[2-(morpholin-4-yl)ethyl]methanesulfonamide], 20.6%. As to `CS(=O)(=O)Nc1ccc(-c2ccc(Cl)cc2)c(Cl)c1` [PT-043, N-(2,4′-dichlorobiphenyl-4-yl)methanesulfonamide], the inhibition at 1 µM is 17.4% and the inhibition at 10 µM was found to be 71.5%. With `CCOC(=O)CN(c1ccc(-c2ccc(Cl)c(F)c2)c(Cl)c1)S(C)(=O)=O` [PT-025, ethyl N-(2,4′-dichloro-3′-fluorobiphenyl-4-yl)-N-(methylsulfonyl)glycinate], the inhibition at 10 µM stood at 60%.

As for `O=S(=O)(C1CC1)N(Cc1cccnc1)c1ccc(-c2cccc(OC(F)(F)F)c2)c(Cl)c1` [PT-081, N-[2-chloro-3′-(trifluoromethoxy)biphenyl-4-yl]-N-(pyridin-3-ylmethyl)cyclopropanesulfonamide], the inhibition at 10 µM turned out to be 40.4%.
